For 18 compounds, IC50 results are on record in US20160257697A1, “THIOPHENE-SUBSTITUTED TETRACYCLIC COMPOUNDS AND METHODS OFUSE THEREOF FOR THE TREATMENT OF VIRAL DISEASES” (priority 2013, published 2016).

Like-named read-outs stand apart in the source and are kept apart here.

Holding throughout (assay): microbe, parasite or virus in culture
Common to all, as to format: cell-based, Hepatitis C virus (HCV)
Common to all, as to conditions: Replicon Assay A

Experiment [1] has as its system HCV replicon 1A. The procedure, abridged:
(§1)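 HCV replicon RNA levels were quantified by TaqMan RT-PCR after 3-day compound exposure (0.5% DMSO, 5% FBS). Cyclophilin RNA, co-amplified in the same reaction, served as endogenous control; Ct values were converted to RNA amounts using linear regression standard curves.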

In experiment [2] the test system is HCV replicon 1AY93H. The procedure, abridged:
as §1

The subject of experiment [3] is HCV replicon 2B. The method in brief:
as §1

Setting [4] is: Hepatitis C virus, read-out: 1A Y93H IC50 (nM), replicon 1AY93H.
Setting [5] is: Hepatitis C virus, read-out: 2B IC50 (nM), replicon 2B.
The mark [6] stands for this setting: Hepatitis C virus, HCV replicon 1A.
Where [7] appears, read: Hepatitis C virus, read-out: 1A Y93H IC50, HCV replicon 1A Y93H.
Where [8] appears, read: Hepatitis C virus, read-out: 2B IC50, HCV replicon 2B.
[9] abbreviates: read-out: 1A Y93H IC50, replicon 1AY93H.
[10] abbreviates: read-out: 1A Y93H IC50, HCV replicon 1A Y93H.
The mark [11] stands for this setting: read-out: 2B IC50, HCV replicon 2B.

Usually IC50 stands for the point on the concentration scale where inhibition reaches its midpoint.

On to `COC(=O)NC(C(=O)N1CCC[C@H]1c1ncc(-c2cc(F)c3c(c2)OC(c2ccc(C(C)C)s2)n2c-3cc3cc(-c4cnc([C@@H]5CCCN5C(=O)[C@@H](NC(=O)OC)C(C)C)[nH]4)ccc32)[nH]1)C1CCOC(C)(C)C1` (single isomer, unassigned) [Compound 246], for which the IC50 amounted to 0.0011 nM in experiment [1] (Hepatitis C virus, replicon 1A); 0.58 nM in experiment [2] (setting [4]); 0.27 nM in experiment [3] (setting [5]).
On to `COC(=O)N[C@H](C(=O)N1CCC[C@H]1c1nc(-c2cc(F)c3c(c2)OC(c2ccc(C4CC4)s2)n2c-3cc3cc(-c4c[nH]c([C@@H]5C[C@H]6C[C@H]6N5C(=O)[C@@H](NC(=O)OC)[C@@H](C)OC)n4)ccc32)c[nH]1)C(C)C` (mixture of isomers) [Compound 723], for which the IC50 in experiment [1] (setting [6]) was 0.0027 nM; in experiment [2] (setting [7]), 0.046 nM; in experiment [3] (setting [8]), 0.08 nM.
Regarding `COC(=O)NC(C(=O)N1CCCC1c1ncc(-c2cc(F)c3c(c2)OC(c2ccc(CC(C)(C)OC)s2)n2c-3cc3cc(-c4cnc(C5CCCN5C(=O)C(NC(=O)OC)C5CCOC(C)(C)C5)[nH]4)ccc32)[nH]1)C(C)C` (single isomer, unassigned) [Compound 850], the IC50 turned out to be 0.0028 nM in experiment [1] (HCV replicon 1A); 0.855 nM in experiment [2] (HCV replicon 1A Y93H, read-out: 1A Y93H IC50); 0.375 nM in experiment [3] (HCV replicon 2B, read-out: 2B IC50).
As for `COC(=O)N[C@H](C(=O)N1CCC[C@H]1c1ncc(-c2cc(F)c3c(c2)OC(c2ccc(C4CC4)s2)n2c-3c(F)c3cc(-c4cnc([C@@H]5CCCN5C(=O)[C@@H](NC(=O)OC)C(C)C)[nH]4)ccc32)[nH]1)C(C)C` (single isomer, unassigned) [Compound 73], the IC50 is 0.0016 nM in experiment [1] (Hepatitis C virus, replicon 1A); 2.26 nM in experiment [2] (setting [4]); 5.14 nM in experiment [3] (setting [5]).
For the compound `COC(=O)N[C@H](C(=O)N1CCC[C@H]1c1ncc(-c2ccc3c(c2)O[C@@H](c2cc4cc(OC)ccc4s2)n2c-3cc3cc(-c4cnc([C@@H]5CCCN5C(=O)[C@@H](NC(=O)OC)C(C)C)[nH]4)ccc32)[nH]1)C(C)C` [Compound 758], the IC50 came to 0.005 nM in experiment [1] (setting [6]), 0.17 nM in experiment [2] (setting [7]) and 0.43 nM in experiment [3] (setting [8]).
`CCc1ccc(C2Oc3cc(-c4cnc([C@@H]5CCCN5C(=O)C(NC(=O)OC)C5C[C@@H](C)O[C@@H](C)C5)[nH]4)cc(F)c3-c3cc4cc(-c5cnc([C@@H]6CCCN6C(=O)C(NC(=O)OC)C6C[C@@H](C)O[C@@H](C)C6)[nH]5)ccc4n32)s1` (single isomer, unassigned) [Compound 299]: the IC50 in experiment [1] (Hepatitis C virus, replicon 1A) stood at 0.0017 nM; in experiment [2] (setting [9]) it was 0.27 nM; in experiment [3] (read-out: 2B IC50, replicon 2B), 0.14 nM.
For the compound `COCc1ccc(C2Oc3cc(-c4cnc([C@@H]5CCCN5C(=O)[C@@H](NC(=O)OC)C(C)C)[nH]4)cc(F)c3-c3cc4cc(-c5c[nH]c([C@@H]6CCCN6C(=O)[C@@H](NC(=O)OC)C(C)C)n5)ccc4n32)s1` (single isomer, unassigned) [Compound 511], the IC50 in experiment [1] (setting [6]) worked out at 0.00238 nM; in experiment [2] (setting [10]), 0.401 nM; in experiment [3] (setting [11]), 1.83 nM.
With `COC(=O)NC(C(=O)N1CCC[C@H]1c1ncc(-c2ccc3c(c2)cc2n3C(c3ccc(C4CC4)s3)Oc3cc(-c4cnc([C@@H]5CCCN5C(=O)[C@@H](NC(=O)OC)C(C)C)[nH]4)cc(F)c3-2)[nH]1)C1C[C@@H](C)O[C@H](C)C1` (single isomer, unassigned) [Compound 192], the IC50 in experiment [1] (replicon 1A) was 0.0011 nM; in experiment [2] (setting [9]), 0.028 nM; in experiment [3] (read-out: 2B IC50, replicon 2B), 0.047 nM.
Take `COC(=O)N[C@H](C(=O)N1CCC[C@H]1c1nc(-c2ccc3c(c2)OC(c2ccc(C)s2)n2c-3cc3cc(-c4c[nH]c([C@@H]5NCCN5C(=O)[C@@H](NC(=O)OC)C(C)C)n4)ccc32)c[nH]1)C(C)C` (single isomer, unassigned) [Compound 701]: the values for the IC50 in experiment [1] (HCV replicon 1A), in experiment [2] (setting [10]) and in experiment [3] (setting [11]) were 0.003 nM, 0.085 nM and 0.15 nM, respectively.
In the same order, the values of `COC(=O)N[C@H](C(=O)N1CCC[C@H]1c1nc(-c2cc(F)c3c(c2)OC(c2ccc(C4CC4)s2)n2c-3cc3cc(-c4c[nH]c([C@@H]5C[C@H]6C[C@H]6N5C(=O)[C@@H](NC(=O)OC)C(C)C)n4)ccc32)c[nH]1)C(C)C` (single isomer, unassigned) [Compound 720] are 0.0019 nM, 0.52 nM and 3.99 nM.
For the compound `COC(=O)N[C@H](C(=O)N1CCC[C@H]1c1ncc(-c2cc(C)c3c(c2)OC(c2cc(C)c(C)s2)n2c-3cc3cc(-c4cnc([C@@H]5CCCN5C(=O)[C@@H](NC(=O)OC)C(C)C)[nH]4)ccc32)[nH]1)C(C)C` (single isomer, unassigned) [Compound 16], the IC50 was determined as 0.0024 nM in experiment [1] (replicon 1A); 0.49 nM in experiment [2] (setting [9]); 0.171 nM in experiment [3] (read-out: 2B IC50, replicon 2B).
In the same order, the values of `CCc1ccc(C2Oc3cc(-c4cnc([C@@H]5CCCN5C(=O)C(NC(=O)OC)C5CCOC(C)(C)C5)[nH]4)cc(F)c3-c3cc4cc(-c5cnc([C@@H]6CCCN6C(=O)C(NC(=O)OC)C6CCOC(C)(C)C6)[nH]5)ccc4n32)s1` (single isomer, unassigned) [Compound 298] are 0.0784 nM, 1.22 nM and 2.09 nM.
Take `COC(=O)N[C@H](C(=O)N1CCC[C@H]1c1ncc(-c2ccc3c(c2)OC(c2ccc(C4CC4)s2)n2c-3cc3cc(-c4cnc([C@@H]5CCCN5C(=O)[C@@H](NC(=O)OC)C(C)C)[nH]4)ccc32)[nH]1)C(C)C` (single isomer, unassigned) [Compound 703]: the IC50 in experiment [1] (HCV replicon 1A) turned out to be 0.03 nM; in experiment [2] (setting [7]), 0.26 nM; in experiment [3] (setting [11]), 0.12 nM.
On to `COC(=O)N[C@H](C(=O)N1CCC[C@H]1c1ncc(-c2cc(F)c3c(c2)OC(c2ccc(C(C)C)s2)n2c-3cc3cc(-c4cnc([C@@H]5CCCN5C(=O)[C@@H](NC(=O)OC)C5CCOCC5)[nH]4)ccc32)[nH]1)C(C)C` (single isomer, unassigned) [Compound 344], for which the IC50 came out at 0.0015 nM in experiment [1] (Hepatitis C virus, replicon 1A); 0.128 nM in experiment [2] (setting [9]); 0.242 nM in experiment [3] (read-out: 2B IC50, replicon 2B).
Regarding `COC(=O)NC(C(=O)N1CCC[C@H]1c1ncc(-c2ccc3c(c2)cc2n3C(c3ccc(C4CC4)s3)Oc3cc(-c4cnc([C@@H]5CCCN5C(=O)[C@@H](NC(=O)OC)C(C)C)[nH]4)cc(F)c3-2)[nH]1)C1CCOC(C)(C)C1` (single isomer, unassigned) [Compound 222], the IC50 in experiment [1] (replicon 1A) turned out to be 0.002 nM; in experiment [2] (setting [9]) it was 0.24 nM; in experiment [3] (read-out: 2B IC50, replicon 2B) it was 0.17 nM.
Consider `COC(=O)N[C@H](C(=O)N1CCC[C@H]1c1nc(-c2cc(F)c3c(c2)OC(c2ccc(C4CC4)s2)n2c-3cc3cc(-c4c[nH]c([C@@H]5C[C@H]6C[C@H]6N5C(=O)[C@@H](NC(=O)OC)C(C)C)n4)ccc32)c[nH]1)C(C)C` (single isomer, unassigned) [Compound 719], for which the IC50 in experiment [1] (HCV replicon 1A) worked out at 0.01 nM; in experiment [2] (setting [10]) it was 0.032 nM; in experiment [3] (setting [11]), 0.036 nM.
For the compound `COC(=O)N[C@H](C(=O)N1CCC[C@H]1c1ncc(-c2cc(F)c3c(c2)OC(c2cccs2)n2c-3cc3cc(-c4cnc([C@@H]5CCCN5C(=O)[C@@H](NC(=O)OC)C(C)C)[nH]4)ccc32)[nH]1)C(C)C` (mixture of isomers) [Compound 500], the IC50 in experiment [1] (setting [6]) stood at 0.0219 nM; in experiment [2] (setting [7]) it was 0.367 nM; in experiment [3] (setting [8]) it was 2.5 nM.
As for `COC(=O)NC(C(=O)N1CCC[C@H]1c1ncc(-c2ccc3c(c2)cc2n3C(c3ccc(C4CC4)s3)Oc3cc(-c4cnc([C@@H]5CCCN5C(=O)[C@@H](NC(=O)OC)C(C)C)[nH]4)cc(F)c3-2)[nH]1)C1CCO[C@@H](C)C1` (single isomer, unassigned) [Compound 354], the IC50 in experiment [1] (Hepatitis C virus, replicon 1A) was found to be 0.002 nM; in experiment [2] (setting [9]) it was 0.38 nM; in experiment [3] (read-out: 2B IC50, replicon 2B), 0.602 nM.
